Legend:
[1] = system: 4% mucin suspension; experiment: mucolithic activity "in vitro" with a 4% mucin suspension (viscosity reduction); format: biochemical; details: molar concentration 0,012 M
Excerpt: The 3-mercapto-2-oxo-1-pyrrolidinyl acetic acid (V) and its derivatives are endowed with interesting phamacological properties; particularly they are endowed with a relevant mucolithic, expectorant and anti-cough activity and moreover show a very low toxicity.

[2] = system: fluid of the respiratory tract; experiment: expectorant activity: fluorescein elimination in the fluid of the respiratory tract; format: in vivo; details: in comparison to the controls; dose 1 mM/kg/os
[3] = acute toxicity in the mouse; details: in vivo, male and female mouse
Excerpt: (§1) Thanks to their pharmacological properties and to the absence of toxicity, the compounds of formula I and their possible pharmaceutically acceptable salts may be used as drugs in the treatment of diseases of the respiratory tract.

[4] = acute toxicity in the rat; details: in vivo, male and female rat
Excerpt: as §1

[5] = tested after a suitable hydrolysis of the thioester

Compound | viscosity reduction [1] [%] | increases of escretion of the colouring matter [2] [%] | LD50 ([3]; ip) [mg/kg] | LD50 ([3]; oral route) [mg/kg] | LD50 ([4]; ip) [mg/kg] | LD50 ([4]; oral route) [mg/kg] | viscosity reduction [1, 5] [%]
CC(=O)N[C@@H](CS)C(=O)O [N-acetyl-L-cysteine, reference compound] | 12.69 | 29.63 | – | – | – | – | –
O=C(O)CN1CCC(S)C1=O (stereo not drawn) [V, 3-mercapto-2-oxo-1-pyrrolidinyl acetic acid] | 20.95 | 52.92 | > 2000 | > 3000 | > 1500 | > 5000 | –
O=C(O)CN1CCC(SC(=O)c2cccs2)C1=O (stereo not drawn) [VI, 3-(2-thenoylthio)-2-oxo-1-pyrrolidinyl acetic acid] | – | 54.26 | > 2000 | > 3000 | > 1500 | > 5000 | 18.22
O=C(O)CN1CCC(SC(=O)c2ccccc2)C1=O (stereo not drawn) [VII, 3-benzoylthio-2-oxo-l-pyrrolidinyl acetic acid] | – | – | – | – | – | – | 16.13
